Drawing on article PMC8695447, “Novel Small Molecules Capable of Blocking mtRAS-Signaling Pathway” (Frontiers in Oncology, 2021), this text covers GI50 for 2 molecules.

One test concerns H358 (KRAS-G12C). The test is described as follows: Anti-proliferation assay on H358. In kind it is cell-based. The note with it: Homo sapiens, NCI-H358; 72 h treatment; average with SD (n = 3, duplicate). Here is the method:
(§1) Ba/F3-parental, OCI-AML3, U397 cells were purchased from DSMZ. MDA-MB-231, HCT-116, AsPC-1, H358, HT-29, SW480, and DU-145 cells were obtained from KCLB. MDA-MB-468 cells were obtained from ATCC. All cells were maintained in RPMI with 10% FBS and antibiotics. Cells were grown in a humidified 5% CO2 incubator at 37°C. Ba/F3-parental cells were grown in the presence of 10 ng/ml IL-3. NRAS-G12D or NRAS-G12V transformed Ba/F3 cell lines (Ba/F3-NRAS-G12D, and Ba/F3-NRAS-G12V, respectively) were cultured without IL-3, which were established by the procedure described as previously ([30]).
(§2) Approximately 3.0 × 10^3 cells/well were seeded in a 96-well cell culture plate. After stabilization, 1/3 serially diluted compound in DMSO was treated to the cell. […] All GI50 values were obtained in duplicate with three independent assays and averages with standard deviation are presented.

A further test deals with DU-145 (KRAS-G12V). The test is described as follows: Anti-proliferation assay on DU-145. In kind it is cell-based. The note with it: Homo sapiens, DU-145; 72 h treatment; average with SD (n = 3, duplicate). Here is the method:
as §1, §2

`Cc1ccc(NC(=O)c2cccc(C(F)(F)F)c2)cc1N1Cc2cnc(Nc3cnn(C4CCN(S(C)(=O)=O)CC4)c3)nc2N(C)C1=O` [SIJ1772, N-(4-Methyl-3-(1-methyl-7-((1-(1-(methylsulfonyl)piperidin-4-yl)-1H-pyrazol-4-yl)amino)-2-oxo-1,4-dihydropyrimido[4,5-d]pyrimidin-3(2H)-yl)phenyl)-3-(trifluoromethyl)benzamide]: the GI50 with H358 (KRAS-G12C) is 0.125 ± 0.017 µM; in the test on DU-145 (KRAS-G12V), 0.029 ± 0.003 µM.

With `CCN1CCN(c2cccc(Nc3ncc4c(n3)N(C)C(=O)N(c3cc(NC(=O)c5cccc(C(F)(F)F)c5)ccc3C)C4)c2)CC1` [SIJ1795, N-(3-(7-((3-(4-Ethylpiperazin-1-yl)phenyl)amino)-1-methyl-2-oxo-1,4-dihydropyrimido[4,5-d]pyrimidin-3(2H)-yl)-4-methylphenyl)-3-(trifluoromethyl)benzamide], the figures for the GI50 with H358 (KRAS-G12C) and in the test with DU-145 (KRAS-G12V) were 0.203 ± 0.012 µM and 0.077 ± 0.043 µM, respectively.
